Laboratory results as given in PubChem BioAssay (NCI).
Several values for one entry are separate records, joined by “and”; a condition that tells them apart may be missing. Identical values can stand only once.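 Cells were grown in 96-well plates and exposed to each compound for 48 hours at five concentrations; endpoints were interpolated linearly between bracketing concentrations, or set to the highest concentration if not reached. The concentration for 50% growth inhibition is given as GI50. TGI is the concentration that stops growth completely.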

What was measured:
Assay in all cases: DTP human tumour cell line panel, 48 h
SN12C renal = system: SN12C renal
CAKI-1 renal = system: CAKI-1 renal
NCI-H23 lung = system: NCI-H23 lung
A549 NSCLC = system: A549 NSCLC
LOX IMVI melanoma = system: LOX IMVI melanoma
A498 renal = system: A498 renal
NCI/ADR-RES ovarian = system: NCI/ADR-RES ovarian
786-0 renal = system: 786-0 renal
HCT-116 colon = system: HCT-116 colon
NCI-H522 lung = system: NCI-H522 lung

With `COc1ccc2c(CN3CCCC[C@H]3C(=O)O)cc3cc4c(cc3c2c1)OCO4` the GI50 (SN12C renal) was 1 µM, the TGI (SN12C renal) was 4.31 µM and the GI50 (CAKI-1 renal) was 0.747 µM. For the same compound, the TGI (CAKI-1 renal) was 3.37 µM, the GI50 (NCI-H23 lung) was 3.25 µM and the TGI (NCI-H23 lung) was > 100 µM. It also gave a GI50 (A549 NSCLC) of 1.1 µM, a TGI (A549 NSCLC) of 4.25 µM and a GI50 (LOX IMVI melanoma) of 1.37 µM. It also gave a TGI (LOX IMVI melanoma) of 3.15 µM, a GI50 (A498 renal) of 1.55 µM and a TGI (A498 renal) of 3.06 µM. The GI50 (NCI/ADR-RES ovarian) was 7.11 µM, the TGI (NCI/ADR-RES ovarian) was 65.7 µM and the GI50 (786-0 renal) was 6.71 µM. For the same compound, the TGI (786-0 renal) was > 100 µM.
In the case of `CC(C)CCCC(C)[C@H]1CCC2[C@@H]3CCC4Cc5nc6c(nc5C[C@]4(C)C3CC[C@@]21C)CC1CC[C@@H]2C(CC[C@@]3(C)C2CC[C@@H]3C(C)CCCC(C)C)[C@@]1(C)C6` (some centres not stated), the TGI (HCT-116 colon) is reported as > 100 µM, the TGI (SN12C renal) is reported as > 100 µM and the TGI (NCI-H23 lung) is reported as > 100 µM. The TGI (A549 NSCLC) was > 100 µM, the TGI (LOX IMVI melanoma) was > 100 µM and the TGI (A498 renal) was > 100 µM. The TGI (NCI/ADR-RES ovarian) was > 100 µM and the TGI (786-0 renal) was > 100 µM.
In the case of `CC1CCC/C1=C(/I)C(=O)c1ccccc1` (configuration not stated), the TGI (HCT-116 colon) is reported as > 100 µM, the TGI (NCI-H522 lung) is reported as > 100 µM and the TGI (SN12C renal) is reported as > 100 µM. For the same compound, the TGI (CAKI-1 renal) was 69.5 µM, the TGI (NCI-H23 lung) was > 100 µM and the TGI (A549 NSCLC) was > 100 µM. The TGI (LOX IMVI melanoma) was 92.7 µM, the TGI (NCI/ADR-RES ovarian) was > 100 µM and the TGI (786-0 renal) was > 100 µM.
Work on `CCCCOC(=O)N1CCN(/[N+]([O-])=N/Oc2ccc([N+](=O)[O-])cc2[N+](=O)[O-])CC1` yielded a GI50 (HCT-116 colon) of 2.07 µM, a TGI (HCT-116 colon) of 3.53 µM and a GI50 (NCI-H522 lung) of 2.91 µM. The TGI (NCI-H522 lung) was > 100 µM, the GI50 (SN12C renal) was 11 µM and the TGI (SN12C renal) was 31.5 µM. For the same compound, the GI50 (CAKI-1 renal) was 3.16 µM, the TGI (CAKI-1 renal) was 6.77 µM and the GI50 (NCI-H23 lung) was 4.6 µM. The TGI (NCI-H23 lung) was 19.5 µM, the GI50 (A549 NSCLC) was 21.1 µM and the TGI (A549 NSCLC) was 64.2 µM. For the same compound, the GI50 (LOX IMVI melanoma) was 2.27 µM, the TGI (LOX IMVI melanoma) was 5.06 µM and the GI50 (NCI/ADR-RES ovarian) was 3.43 µM. The TGI (NCI/ADR-RES ovarian) was > 100 µM, the GI50 (786-0 renal) was 2.47 µM and the TGI (786-0 renal) was 5.67 µM.
In the case of `CC1=NN(C(=O)c2ccccc2O)C(=O)/C1=C/c1ccc(O)cc1`, the TGI (HCT-116 colon) is reported as > 100 µM, the TGI (NCI-H522 lung) is reported as 17.4 µM and the TGI (SN12C renal) is reported as > 78.7 µM. For the same compound, the TGI (CAKI-1 renal) was > 100 µM, the TGI (NCI-H23 lung) was 19.9 µM and the TGI (A549 NSCLC) was > 100 µM. The TGI (LOX IMVI melanoma) was > 82.1 µM, the TGI (NCI/ADR-RES ovarian) was 28.3 µM and the TGI (786-0 renal) was > 100 µM.
Work on `CSC1=C(N)C(=O)c2[nH]cc(CO)c2C1=N` yielded a GI50 (HCT-116 colon) of 0.256 µM, a TGI (HCT-116 colon) of 0.666 µM and a GI50 (NCI-H522 lung) of 0.155 µM. For the same compound, the TGI (NCI-H522 lung) was 0.364 µM, the GI50 (SN12C renal) was 0.16 µM and the TGI (SN12C renal) was 0.317 µM. The GI50 (NCI-H23 lung) was 0.109 µM, the TGI (NCI-H23 lung) was 0.344 µM and the GI50 (A549 NSCLC) was 0.136 µM. It also gave a TGI (A549 NSCLC) of 0.331 µM, a GI50 (LOX IMVI melanoma) of 0.134 µM and a TGI (LOX IMVI melanoma) of 0.283 µM. It also gave a GI50 (A498 renal) of 0.132 µM, a TGI (A498 renal) of 0.269 µM and a GI50 (NCI/ADR-RES ovarian) of 0.239 µM. For the same compound, the TGI (NCI/ADR-RES ovarian) was 0.781 µM, the GI50 (786-0 renal) was 1.44 µM and the TGI (786-0 renal) was 3.24 µM.
`Cc1cc([N+](=O)[O-])c(NS(=O)(=O)c2cccc(C(=O)O)c2)cc1-c1cccnc1` was tested, and the GI50 (HCT-116 colon) was > 100 µM, the TGI (HCT-116 colon) was > 100 µM and the GI50 (SN12C renal) was > 100 µM. The TGI (SN12C renal) was > 100 µM, the GI50 (NCI-H23 lung) was > 100 µM and the TGI (NCI-H23 lung) was > 100 µM. For the same compound, the GI50 (A549 NSCLC) was > 100 µM, the TGI (A549 NSCLC) was > 100 µM and the GI50 (LOX IMVI melanoma) was > 100 µM. For the same compound, the TGI (LOX IMVI melanoma) was > 100 µM, the GI50 (A498 renal) was > 100 µM and the TGI (A498 renal) was > 100 µM. The GI50 (NCI/ADR-RES ovarian) was > 100 µM, the TGI (NCI/ADR-RES ovarian) was > 100 µM and the GI50 (786-0 renal) was > 100 µM. For the same compound, the TGI (786-0 renal) was > 100 µM.
`O=C1c2cc3c(cc2[C@@H]2[C@H]1c1ccc([N+](=O)[O-])cc1C(=O)N2CCCBr)OCO3` was tested, and the GI50 (NCI-H522 lung) was < 0.0266 µM, the GI50 (SN12C renal) was < 0.01 µM and the TGI (SN12C renal) was < 0.01 µM. For the same compound, the GI50 (CAKI-1 renal) was < 0.01 µM, the TGI (CAKI-1 renal) was < 0.0335 µM and the GI50 (NCI-H23 lung) was < 0.01 µM. The TGI (NCI-H23 lung) was 0.0775 µM, the GI50 (A549 NSCLC) was < 0.01 µM and the TGI (A549 NSCLC) was 0.0865 µM. The GI50 (LOX IMVI melanoma) was < 0.01 µM, the TGI (LOX IMVI melanoma) was < 0.0117 µM and the GI50 (A498 renal) was < 0.01 µM. For the same compound, the TGI (A498 renal) was < 0.01 µM, the GI50 (NCI/ADR-RES ovarian) was < 0.01 µM and the TGI (NCI/ADR-RES ovarian) was 0.0177 µM. The GI50 (786-0 renal) was < 0.01 µM and the TGI (786-0 renal) was < 0.01 µM.
`O=C1C(Nc2ccc(Cl)cc2)=C(I)C(=O)c2ncccc21` showed a GI50 (HCT-116 colon) of 0.305 µM, a TGI (HCT-116 colon) of 1.18 µM and a GI50 (SN12C renal) of 1.47 µM. For the same compound, the TGI (SN12C renal) was 2.99 µM, the GI50 (CAKI-1 renal) was 0.327 µM and the TGI (CAKI-1 renal) was 1.54 µM. For the same compound, the GI50 (NCI-H23 lung) was 1.25 µM, the TGI (NCI-H23 lung) was 3.17 µM and the GI50 (A549 NSCLC) was 2.75 µM. It also gave a TGI (A549 NSCLC) of 9.48 µM, a GI50 (LOX IMVI melanoma) of 0.624 µM and a TGI (LOX IMVI melanoma) of 2.11 µM. For the same compound, the GI50 (A498 renal) was 2.53 µM, the TGI (A498 renal) was 13.4 µM and the GI50 (NCI/ADR-RES ovarian) was 2.01 µM. It also gave a TGI (NCI/ADR-RES ovarian) of 5.37 µM, a GI50 (786-0 renal) of 0.91 µM and a TGI (786-0 renal) of 2.25 µM.
`CC[C@@]1(O)C(=O)OCc2c1cc1n(c2=O)Cc2cc3cc4c(cc3nc2-1)OCO4` was tested, and the GI50 (HCT-116 colon) was < 0.001 µM, the TGI (HCT-116 colon) was 0.136 µM and 1.27 µM and the TGI (NCI-H522 lung) was 0.113 µM. The TGI (SN12C renal) was < 0.0125 µM, the TGI (A549 NSCLC) was 0.177 µM and 0.136 µM and the GI50 (LOX IMVI melanoma) was < 0.001 µM. For the same compound, the TGI (LOX IMVI melanoma) was 0.109 µM and 0.0506 µM, the GI50 (A498 renal) was 0.00137 µM and the TGI (A498 renal) was 0.0685 µM and 0.114 µM. For the same compound, the TGI (NCI/ADR-RES ovarian) was > 100 µM and the TGI (786-0 renal) was 0.00274 µM.
For `Cc1cc(NC(=O)NC(=O)c2ccccc2NC(=O)C(C)N)ccc1Oc1ncc(Br)cn1` (configuration not stated), the TGI (HCT-116 colon) was 27.2 µM, the TGI (NCI-H522 lung) was 0.334 µM and the TGI (SN12C renal) was 19.5 µM. For the same compound, the TGI (NCI-H23 lung) was 8.56 µM, the TGI (A549 NSCLC) was 35.8 µM and the TGI (LOX IMVI melanoma) was 33.5 µM. For the same compound, the TGI (A498 renal) was 0.529 µM, the TGI (NCI/ADR-RES ovarian) was 15.9 µM and the TGI (786-0 renal) was 9.56 µM.
For `C/C(=N/NC(=S)N1CCCCC1)c1ccccc1O`, the TGI (NCI-H522 lung) was > 31.6 µM, the TGI (SN12C renal) was > 31.6 µM and the TGI (CAKI-1 renal) was > 31.6 µM. The TGI (NCI-H23 lung) was > 31.6 µM, the TGI (A549 NSCLC) was > 31.6 µM and the TGI (LOX IMVI melanoma) was > 31.6 µM. For the same compound, the TGI (A498 renal) was > 100 µM, the TGI (NCI/ADR-RES ovarian) was > 31.6 µM and the TGI (786-0 renal) was > 31.6 µM.
With `CC1(C)CC(O)C(C)(C)[C@@H](O)C1` (some centres not stated) the TGI (HCT-116 colon) was > 100 µM, the TGI (NCI-H522 lung) was > 100 µM and the TGI (SN12C renal) was > 100 µM. The TGI (CAKI-1 renal) was > 100 µM, the TGI (NCI-H23 lung) was > 100 µM and the TGI (A549 NSCLC) was > 100 µM. The TGI (LOX IMVI melanoma) was > 100 µM, the TGI (NCI/ADR-RES ovarian) was > 100 µM and the TGI (786-0 renal) was > 100 µM.
